Values quoted from earlier work in patent US20220401389A1, “TRANSMUCOSAL THERAPEUTIC SYSTEM CONTAINING AGOMELATINE” (LTS LOHMANN Therapie-Systeme AG, priority 2019, published 2022).

[1] = patients with moderate hepatic impairment compared to healthy subjects

oral absorption (oral): > 80%
overall bioavailability (oral): less than 5%
increase of AUC [1]: up to 140 fold
increase of cmax [1]: up to 140 fold
SMILES: COc1ccc2cccc(CCNC(C)=O)c2c1 [agomelatine, N-(2-(7-Methoxy-1-naphthyl)ethyl)acetamide]
